Results: patent publication US20240360179A1, “STAPLED PEPTIDES AND METHODS THEREOF” (FOG PHARMACEUTICALS, INC., priority 2021, published 2024)

Assays:
[1] = test system: beta-catenin driven transcription in HAP1 WT cells; assay: qPCR of beta-catenin driven transcription in HAP1 WT cells (CHIR treated); type: cell-based; conditions: 24-hour treatment
[2] = test system: HAP1 CTNNB1 knockout cells; assay: qPCR in HAP1 beta-catenin KO cells; type: cell-based

Cc1c[nH]c(-c2cnc(NCCNc3ccc(C#N)cn3)nc2-c2ccc(Cl)cc2Cl)n1 [CHIR, CHIR99021, reference compound]
beta-catenin protein levels [1]: more than two-fold | expression of AXIN2, SP5, or RNF43 [2]: neither CHIR nor peptide A and I-66 affected
